Molecular target: T1, SIRT1 (Homo sapiens, UniProt Q96EB6)
T1 sequence (Q96EB6 1-747): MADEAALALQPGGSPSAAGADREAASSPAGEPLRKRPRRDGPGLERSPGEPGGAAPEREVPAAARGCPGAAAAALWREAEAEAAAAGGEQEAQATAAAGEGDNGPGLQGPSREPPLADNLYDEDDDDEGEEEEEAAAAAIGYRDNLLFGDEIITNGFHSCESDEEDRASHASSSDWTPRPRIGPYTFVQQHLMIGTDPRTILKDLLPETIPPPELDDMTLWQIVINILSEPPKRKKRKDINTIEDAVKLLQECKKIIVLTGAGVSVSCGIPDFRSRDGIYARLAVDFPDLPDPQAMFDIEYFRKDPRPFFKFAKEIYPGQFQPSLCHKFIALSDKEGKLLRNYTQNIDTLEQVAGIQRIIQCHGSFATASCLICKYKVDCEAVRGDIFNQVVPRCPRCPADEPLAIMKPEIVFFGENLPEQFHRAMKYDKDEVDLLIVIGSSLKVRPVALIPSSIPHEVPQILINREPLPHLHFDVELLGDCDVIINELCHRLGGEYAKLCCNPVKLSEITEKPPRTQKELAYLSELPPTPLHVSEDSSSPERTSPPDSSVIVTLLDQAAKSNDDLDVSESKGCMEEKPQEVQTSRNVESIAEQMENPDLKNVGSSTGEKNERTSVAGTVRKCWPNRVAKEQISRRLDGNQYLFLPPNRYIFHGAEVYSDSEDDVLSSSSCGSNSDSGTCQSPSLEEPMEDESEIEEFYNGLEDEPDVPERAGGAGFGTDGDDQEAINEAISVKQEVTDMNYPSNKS
Test: SIRT1 mass spectrometry assay (screening for activation)
Type: biochemical
Conditions: for FOLD ACTIVATION MS: activation of SIRT1, mass spectrometry; for EC50: activation of SIRT1, 0.5 μM peptide substrate (SEQ ID NO: 34), 120 μM NAD+, 10 nM SIRT1, 25 min, read-out: ED50 MS ASSAY

SMILES	FOLD ACTIVATION MS	EC50
O=C(Nc1ccc2c(c1)OCO2)Nc1cccc(-c2nc3ncccc3o2)n1 [compound 71]	B (Fold Activation<250%)	
COc1ccc(C(=O)Nc2cc(-c3nc4ccccc4o3)ccn2)cc1OC [compound 77]	B (Fold Activation<250%)	
COc1ccc(C(=O)Nc2cccc(-c3csc(C)n3)c2)cc1OC [compound 80]	B (Fold Activation<250%)	
COc1ccc(C(=O)Nc2cccc(-c3csc(C)n3)c2)c(OC)c1 [compound 81]	B (Fold Activation<250%)	
COc1cc(SC)ccc1C(=O)Nc1cccc(-c2nncn2C)c1 [compound 83]	B (Fold Activation<250%)	
COc1ccc(C(=O)Nc2cccc(-c3csc(-c4ccccc4)n3)c2)cc1OC [compound 84]	B (Fold Activation<250%)	
Cc1nc(-c2cccc(Nc3nc4ccccc4o3)c2)cs1 [compound 92]	B (Fold Activation<250%)	
c1cc(Nc2nc3ccccc3o2)cc(-c2nc3ncccc3o2)c1 [compound 93]	B (Fold Activation<250%)	
c1cc(Nc2nc3ccccc3s2)cc(-c2nc3ncccc3o2)c1 [compound 95]	B (Fold Activation<250%)	< 50 µM
O=C(Nc1cccc(-c2nc3ccncc3s2)c1)Nc1ccc2c(c1)OCO2 [compound 99]	A (Fold activation>250%)	< 50 µM
c1cc(Nc2nc3ccccc3s2)nc(-c2nc3ncccc3o2)c1 [compound 104]	B (Fold Activation<250%)	< 50 µM
c1cc(Nc2nc3ccccc3o2)nc(-c2nc3ncccc3o2)c1 [compound 105]	B (Fold Activation<250%)	< 50 µM
COc1cc(OC)cc(C(=O)Nc2ccccc2-c2nc3ccccc3[nH]2)c1 [compound 141]	B (Fold Activation<250%)	< 50 µM
COc1ccc(C(=O)Nc2ccccc2-c2nc3ccccc3[nH]2)cc1OC [compound 142]	A (Fold activation>250%)	< 50 µM
COc1ccc(C(=O)Nc2sccc2-c2nc3ccccc3s2)cc1OC [compound 145]	B (Fold Activation<250%)	< 50 µM
COc1cc(OC)cc(C(=O)Nc2sccc2-c2nc3ccccc3s2)c1 [compound 146]	B (Fold Activation<250%)	< 50 µM
COc1cc(C)ccc1C(=O)Nc1ccc(-c2nc3cccnc3[nH]2)cc1 [compound 149]	B (Fold Activation<250%)	< 50 µM
COc1ccc(C(=O)Nc2ccc(-c3nc4cccnc4[nH]3)cc2)cc1OC [compound 150]	B (Fold Activation<250%)	< 50 µM

SMILES	FOLD ACTIVATION MS	EC50
CN(C)CCNC(=O)c1cc(NC(=O)c2cccc(N(C)C)c2)cc(-c2nc3ncccc3o2)c1 [compound 154]	A (Fold activation>250%)	
CN(C)c1cccc(C(=O)Nc2cc(CN3CCNCC3)cc(-c3nc4ncccc4o3)c2)c1 [compound 160]	A (Fold activation>250%)	
COc1ccc(C(=O)Nc2ccccc2-c2nc3ccncc3s2)cc1OC [compound 162]	B (Fold Activation<250%)	< 50 µM
COc1cc(C(=O)Nc2ccccc2-c2nc3ccncc3s2)cc(OC)c1OC [compound 163]	B (Fold Activation<250%)	< 50 µM
CN(C)c1cccc(C(=O)Nc2cccc(-c3nc4nc(CN5CCNCC5)ccc4o3)c2)c1 [compound 166]	B (Fold Activation<250%)	
CN(C(=O)Nc1ccccc1-c1nc2ccccc2[nH]1)c1ccccc1 [compound 169]	B (Fold Activation<250%)	< 50 µM
COc1cc(C(=O)Nc2cc(CN(C)C)cc(-c3nc4ccncc4s3)c2)cc(OC)c1OC [compound 174]	A (Fold activation>250%)	
COc1ccc(C(=O)Nc2ccccc2-n2cccc2)cc1OC [compound 175]	B (Fold Activation<250%)	
COc1cc(C(=O)Nc2ccccc2-n2cccn2)cc(OC)c1OC [compound 176]	B (Fold Activation<250%)	
COc1ccc(C(=O)Nc2ccccc2-n2cccn2)cc1OC [compound 177]	B (Fold Activation<250%)	
COc1ccc(C(=O)Nc2ccccc2-c2cn3cc(CN(C)C)sc3n2)cc1OC [compound 178]	A (Fold activation>250%)	
COc1cc(C(=O)Nc2ccccc2-c2cn3cc(CN(C)C)sc3n2)cc(OC)c1OC [compound 179]	A (Fold activation>250%)	< 50 µM
CN(C)c1cccc(C(=O)Nc2ccc(-c3nc4cccnc4[nH]3)cc2)c1 [compound 180]	B (Fold Activation<250%)	
COc1ccc(C(=O)Nc2cccc(-c3nc4cccnc4[nH]3)c2)c(OC)c1OC [compound 181]	A (Fold activation>250%)	< 50 µM
COc1cc(C)ccc1C(=O)Nc1cccc(-c2nc3cccnc3[nH]2)c1 [compound 182]	A (Fold activation>250%)	< 50 µM
CN(C)c1cccc(C(=O)Nc2cccc(-c3nc4ncccc4[nH]3)c2)c1 [compound 183]	A (Fold activation>250%)	
COc1cc(C)ccc1C(=O)Nc1ccc(-c2cc3cccnc3o2)cc1 [compound 187]	B (Fold Activation<250%)	

Further lines, results first:

FOLD ACTIVATION MS	EC50	SMILES
B (Fold Activation<250%)		COc1ccc(C(=O)Nc2cccc(-c3nc4ncccc4o3)n2)c(OC)c1 [compound 69]
B (Fold Activation<250%)		CN(C)c1ccc(C(=O)Nc2cccc(-c3nc4ncccc4o3)n2)cc1 [compound 70]
B (Fold Activation<250%)		COc1cc(C(=O)Nc2cc(-c3nc4ncccc4o3)ccn2)cc(OC)c1OC [compound 75]
B (Fold Activation<250%)		CN(C)c1cccc(C(=O)Nc2cc(-c3nc4ncccc4o3)ccn2)c1 [compound 76]
B (Fold Activation<250%)	< 50 µM	COc1ccc(C(=O)Nc2ccccc2-c2nc3ncccc3o2)cc1OC [compound 96]
B (Fold Activation<250%)	< 50 µM	CN(C)c1cccc(C(=O)Nc2ccccc2-c2nc3ncccc3o2)c1 [compound 97]
B (Fold Activation<250%)		COc1ccc(NC(=O)c2cccc(-c3nc4ncccc4o3)c2)c(OC)c1 [compound 100]
A (Fold activation>250%)		COc1ccc(NC(=O)c2cccc(-c3nc4ncccc4o3)c2)cc1OC [compound 101]
A (Fold activation>250%)		COc1cc(NC(=O)c2cccc(-c3nc4ncccc4o3)c2)cc(OC)c1OC [compound 102]
B (Fold Activation<250%)	< 50 µM	COc1cc(C(=O)Nc2ccccc2-c2nc3ncccc3o2)cc(OC)c1OC [compound 106]
B (Fold Activation<250%)		COc1ccc(C(=O)Nc2cc(C(=O)NCCN(C)C)cc(-c3nc4ncccc4o3)c2)cc1OC [compound 153]
B (Fold Activation<250%)		COc1ccc(C(=O)Nc2cc(C(=O)NCCN(C)C)cc(-c3nc4ncccc4o3)c2)c(OC)c1 [compound 155]
B (Fold Activation<250%)		COc1ccc(C(=O)Nc2cc(CN(C)C)cc(-c3nc4ncccc4o3)c2)cc1OC [compound 156]
B (Fold Activation<250%)		CN(C)Cc1cc(NC(=O)c2cccc(N(C)C)c2)cc(-c2nc3ncccc3o2)c1 [compound 157]
B (Fold Activation<250%)		COc1ccc(C(=O)Nc2cc(CN(C)C)cc(-c3nc4ncccc4o3)c2)c(OC)c1 [compound 158]
B (Fold Activation<250%)		COc1ccc(C(=O)Nc2cc(CN3CCNCC3)cc(-c3nc4ncccc4o3)c2)cc1OC [compound 159]
A (Fold activation>250%)		COc1ccc(C(=O)Nc2cc(CN3CCNCC3)cc(-c3nc4ncccc4o3)c2)c(OC)c1 [compound 161]
B (Fold Activation<250%)		COc1ccc(C(=O)Nc2cc(C(=O)N3CCNCC3)cc(-c3nc4ncccc4o3)c2)cc1OC [compound 164]
A (Fold activation>250%)		CN(C)Cc1ccc2oc(-c3cccc(NC(=O)c4cccc(N(C)C)c4)c3)nc2n1 [compound 165]
B (Fold Activation<250%)		Cc1ccc2oc(-c3cccc(NC(=O)c4cccc(N(C)C)c4)c3)nc2n1 [compound 167]
B (Fold Activation<250%)	< 50 µM	COc1ccc(C(=O)Nc2cccc(-c3nc4ncccc4[nH]3)c2)c(OC)c1 [compound 184]
A (Fold activation>250%)	< 50 µM	COc1ccc(C(=O)Nc2cccc(-c3nc4cccnc4[nH]3)c2)cc1OC [compound 185]
B (Fold Activation<250%)	< 50 µM	COc1ccc(C(=O)Nc2ccc(-c3cc4cccnc4o3)cc2)c(OC)c1 [compound 190]
B (Fold Activation<250%)	< 50 µM	COc1ccc(C(=O)Nc2cccc(-c3cc4cccnc4o3)c2)c(OC)c1 [compound 191]
